Laboratory results taken from paper PMC4527731, “Calcineurin Undergoes a Conformational Switch Evoked via Peptidyl-Prolyl Isomerization” (PLoS ONE, 2015).

How the values were obtained:
[1] = test system: Flag-CNA 2–389 / GST-NFATc2 interaction; assay: GST-NFATc2 pull-down competition assay; assay type: binding; settings: HEK 293T cells transfected with FLAG–CNA (2–389); soluble extracts with GST–NFATc2 beads 60 min at 4°C; increasing peptide concentrations (Fig 6c)
Experimental: (§1) In GST-RCAN3 pull-down competition assays, HEK 293T cells were lysed in co-immunoprecipitation buffer (50 mM Tris–HCl, pH 7.5, 100 mM NaCl, 2 mM CaCl2, 5 mM MgCl2, 1% IGEPAL, 1 mM DTT, 2 mM PMSF and protease and phosphatase inhibitor cocktails) and the CNA- and the RCAN3-derived peptides containing a PxIxIT sequence were added to the extracts at the indicated concentrations for 30 min. Then, the soluble extracts were incubated with GST–RCAN3 bound to Glutathione Sepharose beads for 90 min at 4°C. After extensive washing, co-precipitated proteins were eluted by resuspension in 2× Laemmli buffer and boiled for 10 min. For GST–NFATc2 pull-down competition assays, HEK 293T cells transfected with FLAG–CNA (2–389) were lysed in a buffer containing 50 mM Tris–HCl, pH 8, 100 mM NaCl, 1.5 mM CaCl2, 6 mM MgCl2, 0.2% TX-100, 1 mM PMSF and protease and phosphatase inhibitor cocktails. Soluble extracts were incubated with GST–NFATc2 bound to Glutathione Sepharose beads for 60 min at 4°C.

[2] = test system: Endogenous CNA / GST-RCAN3 interaction; assay: GST-RCAN3 pull-down competition assay; assay type: binding; settings: HEK 293T lysate, peptide at increasing concentrations for 30 min, then GST–RCAN3 beads 90 min at 4°C (Fig 6b)
Experimental: as §1

[3] = test system: CNA (human CNAα catalytic domain); assay: Fluorescence polarization competition of CF-SPRIEIT-CNA complex; assay type: binding; settings: 10 nM CF-labeled SPRIEIT, 10 μM CNA, unlabeled competitor pre-incubated 15 min at increasing concentrations, room temperature, ex 485 nm, em 535 nm, two independent experiments in triplicates (Fig 6a)
Experimental: Peptides were purchased from the Peptide 2.0 Company (Chantilly, VA) and synthesized as acetylated N-terminal and C-terminal amides for the unlabeled peptides and N-carboxyfluorescein (CF) and C-terminal amide for the labelled peptide. The sequences of the peptides used are the following: […] for the RCAN^183–203 peptide; […] for the cis-CNA derived peptide; and […] for the NFATc2-SPRIEIT (SPRIEIT) peptide. All peptides were resuspended in 100% DMSO at 10 mM. Cyclosporin A (CsA) was obtained from Sandoz. Ionomycin (Io) sodium salt and Phorbol 12-myristate 13-acetate sodium salt (PMA) were obtained from Sigma. The anti-calcineurin A antibody was purchased from BD Biosciences and the anti-Flag M2 antibody was purchased from Sigma. The protease and phosphatase inhibitor cocktails were from Calbiochem.
Expression, purification and isolation of the CNAα domain was performed as previously described. […]
Competition assays were performed as described. […] Unlabeled competitor peptides were pre-incubated with CNA at increasing concentrations for 15 min before adding the fluorescence labeled peptide. Experiments were performed in a OptiPlate black 384-well-flat-bottom plates (PerkinElmer Life Sciences, Waltham, MA) and measured using a Wallac VICTOR (TM) X5 2030 Multilabel Reader (PerkinElmer Life Sciences) with excitation and emission wavelengths of 485 nm and 535 nm respectively. […]

[4] = test system: Endogenous CN in HEK 293T cells; assay: Inhibition of endogenous CN activity by CsA in NFATc-luciferase reporter assay; assay type: cell-based; settings: 1 μM CsA, 30 min before stimulation with Io/PMA/Ca^2+ for 6 hours
Experimental: Flag-hCNAα mutants were performed by PCR using CN specific primers (Table 2). ΔNIR mutant lacks the CNA PXIXIT binding region VMNIR ranging from amino acids 328 to 332. All Flag-CNA constructs bear the Y341F mutation to achieve CsA resistance unless for the specified wt. Luciferase gene assays were performed in HEK 293T cells transfected with 100 ng of 3xNFAT-luc plasmid, 100 ng of pBJ5-mCNB, 1 ng of pRLNull as an internal transfection control and 400 ng of the indicated Flag-hCNAα mutants constructs. Stimulation was achieved by treating the cells with.1 μM ionomycin, 10 nM PMA and 10 mM CaCl2. Endogenous CN activity was abolished by treating cells with 1 μM Cyclosporin A (CsA) 30 min prior to stimulation. FK506 was used as a positive control for CsA-resistant CN. After 6h of cell stimulation, 10 μl of cell extract were analyzed for luciferase gene expression using the Dual-Luciferase Reporter Assay (Promega) following the manufacturer’s protocol on a multiplate luminometer (FLUOstar Optima, BMG). Luciferase units were normalized to densitometric data of 10 μl of cell extract analyzed by western blot. Absence of cell stimulation is shown with a minus symbol (-). Three experiments were performed with triplicates. Stimulation of the Y341F mutant was considered as 100% value.

[5] = molecular target: T1, catalytic domain of human CNAα (residues 2–347) (human, UniProt Q08209-1 2-347); assay: fluorescence polarisation; competition: 10 nM CF-labeled SPRIEIT peptide and 10 μM CNA; unlabeled competitor peptides pre-incubated with CNA at increasing concentrations for 15 min; room temperature; settings: both partners purified
T1 construct: calcineurin catalytic subunit A, alpha isoform, human, NCBI NP_000935.1, catalytic domain residues 2-347; also called CNAα catalytic domain; trans-CNA; source: from the pGEX-6P-1-CNAα plasmid
T1 sequence (Q08209 2-347): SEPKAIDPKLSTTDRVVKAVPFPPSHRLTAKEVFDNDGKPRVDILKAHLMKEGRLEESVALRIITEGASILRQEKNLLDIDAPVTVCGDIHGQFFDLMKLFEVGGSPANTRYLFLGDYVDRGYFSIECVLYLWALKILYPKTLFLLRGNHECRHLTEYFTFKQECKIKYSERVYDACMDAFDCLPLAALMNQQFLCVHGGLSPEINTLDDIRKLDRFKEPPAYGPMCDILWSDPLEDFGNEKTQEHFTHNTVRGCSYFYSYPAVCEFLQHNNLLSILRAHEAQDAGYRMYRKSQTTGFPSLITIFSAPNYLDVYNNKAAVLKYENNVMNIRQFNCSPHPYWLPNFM

| Molecule | interference with CN–GST-NFATc2 interaction (pull down) [1] | interference with CN–GST-RCAN3 interaction (pull down) [2] | interference with CN–SPRIEIT peptide interaction (fluorescence polarization competition) [3] | endogenous CN activity after CsA treatment [4] | binding result [5] |
| --- | --- | --- | --- | --- | --- |
| KYELHAGTESTPSVVVHVCES [R3^183-203, RCAN3-derived PxIxIT-containing peptide (amino acids 183–203)] | able to disrupt CN interaction with proteins containing a PxIxIT motif | able to disrupt CN interaction with proteins containing a PxIxIT motif | able to disrupt CN interaction with proteins containing a PxIxIT motif | – | – |
| NNKAAVLKYE | does not interfere with high affinity interactions | does not interfere with high affinity interactions | does not interfere with high affinity interactions | – | – |
| Cyclosporin A [CsA] | – | – | – | abolished | – |
| Ac-KYELHAGTESTPSVVVHVCES-NH2 (source: synthetic peptide, bought: Peptide 2.0 Company) [RCAN3-derived PxIxIT-containing peptide (amino acids 183–203)] | – | – | – | – | binds |
